According to US20250009694A1, “METHODS AND PHARMACEUTICAL COMPOSITIONS FOR REPAIRING INTESTINAL MUCOSAL” (INSTITUT NATIONAL DE LA SANTÉ ET DE LA RECHERCHE MÉDICALE, priority 2021, published 2025):

Tested on: DSS-colitis in WT mice
Assay: DSS-induced acute colitis in WT C57BL/6 mice after pre-treatment
Type: in vivo, mouse
Details: CEA alone, Pan alone or coadministration

Compound	influence on DSS-colitis, single or combined administration
NCCS [CEA, 2-aminoethanethiol]	poor influence
CC(C)(CO)[C@@H](O)C(=O)NCCC(=O)O [Pan, 3-[(2R)-(2,4-Dihydroxy-3,3-dimethylbutanoyl)amino]propanoic acid]	delayed colitis development
